Data as given in patent US5585374A, “Amide derivatives” (John Wyeth Brother, Limited, priority 1992, dated 1996).

Legend:
α1 sites = assay: affinity for α1 sites (procedure of Marrow et al.); assay type: binding
5-HT1A receptor [1] = biological target: T1, 5-HT1A receptor (Cavia porcellus, UniProt A0A286Y074); assay: 5-HT1A receptor antagonism: antagonism of 5-carboxamidotryptamine in guinea-pig ileum in vitro; settings: read-out: pA2 (converted)
T1 construct: in the guinea-pig ileum in vitro; from tissue; host or cells: guinea-pig ileum
T1 sequence (A0A286Y074 1-421): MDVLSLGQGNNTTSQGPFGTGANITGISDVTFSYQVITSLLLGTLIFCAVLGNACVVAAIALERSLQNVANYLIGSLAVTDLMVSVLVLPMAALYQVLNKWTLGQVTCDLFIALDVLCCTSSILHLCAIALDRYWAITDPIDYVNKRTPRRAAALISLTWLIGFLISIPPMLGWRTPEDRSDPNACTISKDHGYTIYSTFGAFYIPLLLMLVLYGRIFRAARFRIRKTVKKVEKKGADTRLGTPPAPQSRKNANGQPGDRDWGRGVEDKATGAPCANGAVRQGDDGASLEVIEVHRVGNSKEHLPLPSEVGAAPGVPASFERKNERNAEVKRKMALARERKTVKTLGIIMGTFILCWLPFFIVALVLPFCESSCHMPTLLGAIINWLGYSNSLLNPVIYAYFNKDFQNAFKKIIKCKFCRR
Experimental: The compounds are tested for 5-HT1A receptor antagonism activity in a test involving the antagonism of 5-carboxamidotryptamine in the guinea-pig ileum in vitro (based upon the procedure of Fozard et al, Br J Pharmac, 1985, 86, 601 P).

5-HT1A receptor [2] = biological target: T2, 5-HT1A receptor (Rattus norvegicus, UniProt P19327); assay: 5-HT1A receptor binding activity in rat hippocampal membrane homogenate
T2 construct: rat hippocampal membrane homogenate; from tissue; host or cells: rat hippocampus (membrane homogenate)
T2 sequence (P19327 1-422): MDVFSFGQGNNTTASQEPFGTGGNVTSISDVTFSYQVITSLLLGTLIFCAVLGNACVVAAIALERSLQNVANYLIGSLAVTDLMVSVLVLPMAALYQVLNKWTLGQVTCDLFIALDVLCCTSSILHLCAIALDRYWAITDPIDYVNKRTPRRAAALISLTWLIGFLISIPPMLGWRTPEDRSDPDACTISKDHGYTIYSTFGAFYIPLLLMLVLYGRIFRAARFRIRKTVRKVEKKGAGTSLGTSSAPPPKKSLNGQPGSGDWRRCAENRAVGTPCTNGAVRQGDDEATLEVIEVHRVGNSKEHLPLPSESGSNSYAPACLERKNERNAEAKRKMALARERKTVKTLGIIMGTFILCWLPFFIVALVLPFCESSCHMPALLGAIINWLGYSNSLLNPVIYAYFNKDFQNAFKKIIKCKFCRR
Experimental: The compounds of the invention are tested for 5-HT1A receptor binding activity in rat hippocampal membrane homogenate by the method of B S Alexander and M D Wood, J Pharm Pharmacol, 1988, 40, 888-891.

Row | IC50 (α1 sites) | Kb (5-HT1A receptor [1]) | IC50 (5-HT1A receptor [2]) | Structure (SMILES)
1 | 250 nM | 1 nM | 0.2 nM | COc1ccccc1C1CCN(CCC(C(=O)N2CCCCCC2)c2ccccc2)CC1 (single isomer, unassigned; (+)) [(+)-enantiomer]
2 | 1080 nM | 0.794 nM | 1.2 nM | COc1ccccc1C1CCN(CCC(C(=O)N2CCCCCC2)c2ccccc2)CC1 (stereo not drawn) [2,3,4,5,6,7-hexahydro-1-(4-(1-(1,2,3,4,5,6-hexahydro-4-(2-methoxyphenyl)pyridyl))-2-phenylbutyryl)-1H-azepine]
